In one assay the target is rat orexin 1 receptor (Rattus norvegicus, UniProt P56718). The experiment in a line: Rat orexin 1 receptor radioligand binding. As to conditions: HEK293 cells stably expressing rat orexin 1 receptor; competitive radioligand binding, apparent Ki; read-out: rOX1 Ki. The method, then: (§1) Rat and Human Orexin 1 Receptor Radioligand Binding Studies
(§2) After centrifugation (2K×G, 5 min at 4° C.), the supernatant was aspirated and the pellets frozen and stored at −80° C. […] Each cell pellet from a 15 cm plate was resuspended in 10 mL, stored on ice, and homogenized for 45 sec prior to addition to the reactions. […] The final concentration of DMSO in the reactions is equal to or less than 0.1%. Total and nonspecific binding was determined in the absence and presence of 10 μM almorexant. The total volume of each reaction is 200 μL (20 μL of diluted compounds, 80 μL of [^3H]-(1-(5-(2-fluoro-phenyl)-2-methyl-thiazol-4-yl)-1-((S)-2-(5-phenyl-(1,3,4)oxadiazol-2-ylmethyl)-pyrrolidin-1-yl)-methanone) diluted in PBS and 100 μL of the cell suspension). […] The plates were washed 3 times by aspirating 30 ml PBS through the plates. Plates were dried in 55° C. oven for 60 min, scintillation fluid was added, and the radioactivity was counted on a Topcount (Packard).

The next assay concerns the target human orexin 2 receptor (Homo sapiens (Human), UniProt O43614). The experiment in a line: Human orexin 2 receptor radioligand binding. To be noted: HEK293 stably expressing human orexin 2 receptor; [3H]-EMPA competitive binding, apparent Ki; read-out: hOX2 Ki. The method, then:
Human Orexin 2 Receptor Radioligand Binding Studies
as §2, with “sec just” for “sec”, “reactions. Competition binding experiments in 96 well polypropylene plates were performed using [^3H]-EMPA (Moraveck Corporation, specific activity=29.6 Ci/mmol), diluted to a 5 nM concentration in PBS (2 nM final concentration).” for “reactions.”, “[^3H]-EMPA” for “[^3H]-(1-(5-(2-fluoro-phenyl)-2-methyl-thiazol-4-yl)-1-((S)-2-(5-phenyl-(1,3,4)oxadiazol-2-ylmethyl)-pyrrolidin-1-yl)-methanone)”

For a further assay, the target named is human orexin 1 receptor (Homo sapiens, UniProt O43613). Put plainly: Human orexin 1 receptor radioligand binding. To be noted: CHO cells stably expressing human orexin 1 receptor; competitive radioligand binding, apparent Ki; read-out: hOX1 Ki. As to the method:
as §1, §2

From US8969352B2, “Substituted 2-azabicycles and their use as orexin receptor modulators” (Janssen Pharmaceutica NV, priority 2013, dated 2015) come the findings set out here.

Sequence of human orexin 2 receptor (O43614 whole entry): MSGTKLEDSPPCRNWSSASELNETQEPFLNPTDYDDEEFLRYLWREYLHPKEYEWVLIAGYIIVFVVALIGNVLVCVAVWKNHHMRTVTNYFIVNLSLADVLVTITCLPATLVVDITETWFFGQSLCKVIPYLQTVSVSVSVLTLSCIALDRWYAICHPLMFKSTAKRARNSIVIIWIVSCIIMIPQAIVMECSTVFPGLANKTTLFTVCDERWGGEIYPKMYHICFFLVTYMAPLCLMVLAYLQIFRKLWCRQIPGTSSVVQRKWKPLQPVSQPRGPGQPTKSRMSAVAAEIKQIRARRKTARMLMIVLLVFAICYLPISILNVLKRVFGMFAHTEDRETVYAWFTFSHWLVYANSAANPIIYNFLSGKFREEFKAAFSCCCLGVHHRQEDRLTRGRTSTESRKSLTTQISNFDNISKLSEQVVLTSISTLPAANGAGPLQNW

Regarding `Cc1ccc(-n2nccn2)c(C(=O)N2C[C@H]3C[C@@H](Oc4ccc(Br)cn4)[C@@H]2C3)n1` [Example 50, ((1S,4R,6R)-6-((5-bromopyridin-2-yl)oxy)-2-azabicyclo[2.2.1]heptan-2-yl)(6-methyl-3-(2H-1,2,3-triazol-2-yl)pyridin-2-yl)methanone], the Ki turned out to be 7 nM at rat orexin 1 receptor, 670 nM on human orexin 2 receptor and 9 nM at human orexin 1 receptor.
In the case of `O=C(c1cc(F)ccc1-c1ncccn1)N1C[C@H]2C[C@@H](Nc3ccc(C(F)(F)F)cn3)[C@@H]1C2` [Example 58, (5-fluoro-2-(pyrimidin-2-yl)phenyl)((1S,4S,6R)-6-((5-(trifluoromethyl)pyridin-2-yl)amino)-2-azabicyclo[2.2.1]heptan-2-yl)methanone], the Ki at rat orexin 1 receptor worked out at 4 nM; at human orexin 2 receptor, 181 nM; on human orexin 1 receptor, 2 nM.
With `Cc1cccc(C(=O)N2CC3CC(Oc4ccc(C(F)(F)F)cn4)C2C3)c1-n1nccn1` (racemic) [Example 17, (R/S)-(3-methyl-2-(2H-1,2,3-triazol-2-yl)phenyl)(6-((5-(trifluoromethyl)pyridin-2-yl)oxy)-2-azabicyclo[2.2.1]heptan-2-yl)methanone], the Ki on human orexin 2 receptor came to 234 nM.
In the case of `O=C(c1c(F)cccc1-n1nccn1)N1CC2CC(Oc3ccc(C(F)(F)F)cn3)C1C2` (racemic) [Example 18, (R/S)-(2-fluoro-6-(2H-1,2,3-triazol-2-yl)phenyl)(6-((5-(trifluoromethyl)pyridin-2-yl)oxy)-2-azabicyclo[2.2.1]heptan-2-yl)methanone], the Ki on rat orexin 1 receptor was determined as 25 nM; at human orexin 1 receptor, 23 nM.
For the molecule `O=C(c1c(F)cccc1-n1nccn1)N1C[C@H]2C[C@@H](Oc3ccc(C(F)(F)F)cn3)[C@@H]1C2` [Example 46, (2-fluoro-6-(2H-1,2,3-triazol-2-yl)phenyl)((1S,4R,6R)-6-((5-(trifluoromethyl)pyridin-2-yl)oxy)-2-azabicyclo[2.2.1]heptan-2-yl)methanone], the Ki was found to be 10 nM at rat orexin 1 receptor and 12 nM on human orexin 1 receptor.
As for `O=C(c1ccccc1-n1nccn1)N1C[C@H]2C[C@@H](Nc3ccc(C(F)(F)F)cn3)[C@@H]1C2` [Example 53, (2-(2H-1,2,3-triazol-2-yl)phenyl)((1S,4S,6R)-6-((5-(trifluoromethyl)pyridin-2-yl)amino)-2-azabicyclo[2.2.1]heptan-2-yl)methanone], the Ki on rat orexin 1 receptor and on human orexin 1 receptor was 3 nM each time.
With `Cc1cnc(C(=O)N2CC3CC(Oc4cnc(C(F)(F)F)cn4)C2C3)c(-n2nccn2)c1` (racemic) [Example 4], the Ki at rat orexin 1 receptor is 837 nM; at human orexin 2 receptor it was greater than 10000 nM.
On to `O=C(c1ccccc1-n1cnnc1)N1CC2CC(Oc3ccc(C(F)(F)F)cn3)C1C2` (racemic) [Example 21, (R/S)-(2-(4H-1,2,4-triazol-4-yl)phenyl)(6-((5-(trifluoromethyl)pyridin-2-yl)oxy)-2-azabicyclo[2.2.1]heptan-2-yl)methanone], for which the Ki at rat orexin 1 receptor and at human orexin 2 receptor was greater than 10000 nM each time.
`COc1c(F)cccc1C(=O)N1C[C@H]2C[C@@H](Oc3ccc(C(F)(F)F)cn3)[C@@H]1C2` [Example 31, (3-fluoro-2-methoxyphenyl)((1S,4R,6R)-6-((5-(trifluoromethyl)pyridin-2-yl)oxy)-2-azabicyclo[2.2.1]heptan-2-yl)methanone]: the Ki at rat orexin 1 receptor was 707 nM; on human orexin 2 receptor it was greater than 10000 nM.
For the molecule `CCOc1ncc2ccccc2c1C(=O)N1CC2CC(Oc3ccc(C(F)(F)F)cn3)C1C2` (racemic) [Example 8, (R/S)-(3-ethoxyisoquinolin-4-yl)(6-((5-(trifluoromethyl)pyridin-2-yl)oxy)-2-azabicyclo[2.2.1]heptan-2-yl)methanone], the Ki at human orexin 2 receptor was 1450 nM.
Turning to `O=C(c1ccccc1-n1nccn1)N1CC2CC(Oc3cnc(C(F)(F)F)cn3)C1C2` (racemic) [Example 1, (R/S)-(2-(2H-1,2,3-triazol-2-yl)phenyl)(6-((5-(trifluoromethyl)pyrazin-2-yl)oxy)-2-azabicyclo[2.2.1]heptan-2-yl)methanone], the Ki came to 74 nM at rat orexin 1 receptor and 120 nM at human orexin 1 receptor.
Turning to `Cc1cccc(C(=O)N2C[C@H]3C[C@@H](Oc4ccc(C(F)(F)F)cn4)[C@@H]2C3)c1-c1ncco1` [Example 32, (3-methyl-2-(oxazol-2-yl)phenyl)((1S,4R,6R)-6-((5-(trifluoromethyl)pyridin-2-yl)oxy)-2-azabicyclo[2.2.1]heptan-2-yl)methanone], the Ki on rat orexin 1 receptor came to 3 nM; at human orexin 1 receptor, 4 nM.
With `O=C(c1cccc(F)c1-n1nccn1)N1CC2CC(Oc3ccc(C(F)(F)F)cn3)C1C2` (racemic) [Example 16, (R/S)-(3-fluoro-2-(2H-1,2,3-triazol-2-yl)phenyl)(6-((5-(trifluoromethyl)pyridin-2-yl)oxy)-2-azabicyclo[2.2.1]heptan-2-yl)methanone], the Ki at rat orexin 1 receptor was found to be 8 nM.
`O=C(c1ccc(F)cc1-c1ncccn1)N1C[C@H]2C[C@@H](Oc3ccc(C(F)(F)F)cn3)[C@@H]1C2` [Example 26, (4-fluoro-2-(pyrimidin-2-yl)phenyl)((1S,4R,6R)-6-((5-(trifluoromethyl)pyridin-2-yl)oxy)-2-azabicyclo[2.2.1]heptan-2-yl)methanone]: the Ki on human orexin 2 receptor was determined as 2100 nM.
As for `O=C(c1ccccc1-n1nccn1)N1C[C@H]2C[C@@H](Oc3ccc(C(F)(F)F)cn3)[C@@H]1C2` [Example 36, (2-(2H-1,2,3-triazol-2-yl)phenyl)((1S,4R,6R)-6-((5-(trifluoromethyl)pyridin-2-yl)oxy)-2-azabicyclo[2.2.1]heptan-2-yl)methanone], the Ki came to 5 nM on rat orexin 1 receptor and 11 nM at human orexin 1 receptor.
As for `O=C(c1cccc(F)c1-n1nccn1)N1C[C@H]2C[C@@H](Oc3ccc(C(F)(F)F)cn3)[C@@H]1C2` [Example 35, (3-fluoro-2-(2H-1,2,3-triazol-2-yl)phenyl)((1S,4R,6R)-6-((5-(trifluoromethyl)pyridin-2-yl)oxy)-2-azabicyclo[2.2.1]heptan-2-yl)methanone], the Ki on rat orexin 1 receptor is 8 nM.
Consider `Cc1ccc(-n2nccn2)c(C(=O)N2C[C@H]3C[C@@H](Oc4ncccc4C(F)(F)F)[C@@H]2C3)n1` [Example 52, (6-methyl-3-(2H-1,2,3-triazol-2-yl)pyridin-2-yl)((1S,4R,6R)-6-((3-(trifluoromethyl)pyridin-2-yl)oxy)-2-azabicyclo[2.2.1]heptan-2-yl)methanone], for which the Ki on rat orexin 1 receptor was determined as 550 nM; on human orexin 2 receptor, 4000 nM.
On to `COc1cccc(-n2nccn2)c1C(=O)N1CC2CC(Oc3ccc(C(F)(F)F)cn3)C1C2` (racemic) [Example 15], for which the Ki at human orexin 2 receptor was 229 nM.
In the case of `O=C(c1ccccc1-n1nccn1)N1C[C@H]2C[C@@H](Oc3ncccc3C(F)(F)F)[C@@H]1C2` [Example 51, (2-(2H-1,2,3-triazol-2-yl)phenyl)((1S,4R,6R)-6-((3-(trifluoromethyl)pyridin-2-yl)oxy)-2-azabicyclo[2.2.1]heptan-2-yl)methanone], the Ki amounted to 294 nM at rat orexin 1 receptor and 676 nM at human orexin 2 receptor.
For `O=C(c1ccccc1-n1nccn1)N1CC2CC(Oc3ccc(C(F)(F)F)cn3)C1C2` (racemic) [Example 7, (R/S)-(2-(2H-1,2,3-triazol-2-yl)phenyl)(6-((5-(trifluoromethyl)pyridin-2-yl)oxy)-2-azabicyclo[2.2.1]heptan-2-yl)methanone], the Ki at rat orexin 1 receptor was 21 nM; at human orexin 1 receptor, 12 nM.
For the molecule `Cc1cnn(C)c1-c1ccccc1C(=O)N1C[C@H]2C[C@@H](Oc3ccc(C(F)(F)F)cn3)[C@@H]1C2` [Example 41, (2-(1,4-dimethyl-1H-pyrazol-5-yl)phenyl)((1S,4R,6R)-6-((5-(trifluoromethyl)pyridin-2-yl)oxy)-2-azabicyclo[2.2.1]heptan-2-yl)methanone], the figures for the Ki on rat orexin 1 receptor and on human orexin 2 receptor were 4400 nM and greater than 10000 nM, respectively.
As for `O=C(c1c(F)cccc1-c1ncccn1)N1C[C@H]2C[C@@H](Oc3ccc(Br)cn3)[C@@H]1C2` [Example 47, ((1S,4R,6R)-6-((5-bromopyridin-2-yl)oxy)-2-azabicyclo[2.2.1]heptan-2-yl)(2-fluoro-6-(pyrimidin-2-yl)phenyl)methanone], the values for the Ki at rat orexin 1 receptor and on human orexin 1 receptor were 7 nM and 11 nM, respectively.
As for `O=C(c1ccc(F)cc1-c1ncccn1)N1CC2CC(Oc3ccc(C(F)(F)F)cn3)C1C2` (racemic) [Example 20, (R/S)-(4-fluoro-2-(pyrimidin-2-yl)phenyl)(-6-((5-(trifluoromethyl)pyridin-2-yl)oxy)-2-azabicyclo[2.2.1]heptan-2-yl)methanone], the Ki on human orexin 2 receptor was 2700 nM.
